The values that follow come from patent US10947252B2, “Inhibitors of KEAP1-Nrf2 protein-protein interaction” (Janssen Pharmaceutica NV, priority 2018, dated 2021).

Each structure is given as a SMILES string.

The test system of the experiment is Glo-Response ARE-luc2P HEK293 cell line. The experiment in a line: ARE luciferase reporter cell-based assay.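 Further: luciferase signal tracks Nrf2 activation of the ARE once compounds disrupt KEAP1-Nrf2 binding, read with One-Glo reagent, DMSO serving as low control.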 As to conditions: Homo sapiens, HEK293, 24 h, average of results obtained. (A reporter such as luciferase makes a cellular process visible.)

In general, EC50 refers to the concentration that produces a half-maximal response. A higher EC50 goes with weaker potency. For `Cc1ccc([C@H](CC(=O)O)c2ccn3c(C(F)(F)F)nnc3c2C)cc1CN1C[C@H]2CCCCN2c2ncc(C(F)(F)F)cc2S1(=O)=O` (relative stereo) [Example 199, (*S)-3-(3-(((*R)-5,5-Dioxido-3-(trifluoromethyl)-7,7a,8,9,10,11-hexahydro-6H-dipyrido[2,1-d:2′,3′-f][1,2,5]thiadiazepin-6-yl)methyl)-4-methylphenyl)-3-(8-methyl-3-(trifluoromethyl)-[1,2,4]triazolo[4,3-a]pyridin-7-yl)propanoic Acid], the EC50 came to 3.3 nM.

On to `Cc1ccc([C@H](CC(=O)O)c2ccn3c(C(F)F)nnc3c2C)cc1CN1CC2(CC2)Oc2ncc(Cl)cc2S1(=O)=O` (single isomer, unassigned) [Example 530, (*S)-3-(3-((8′-Chloro-1′,1′-dioxidospiro[cyclopropane-1,4′-pyrido[2,3-b][1,4,5]oxathiazepin]-2′(3′H)-yl)methyl)-4-methylphenyl)-3-(3-(difluoromethyl)-8-methyl-[1,2,4]triazolo[4,3-a]pyridin-7-yl)propanoic Acid], for which the half-maximal effective concentration (EC50) worked out at 10.2 nM.

For `Cc1ccc([C@@H](c2cc(OC(F)F)c3c(c2)nnn3C)C(C)(C)C(=O)O)cc1CN1CC2(CCOCC2)Oc2ncccc2S1(=O)=O` (single isomer, unassigned) [Example 426], the EC50 stood at 0.9 nM.

In turn, `CCn1nnc2c(C)c([C@@H](CC(=O)O)c3ccc(C)c(CN4C[C@H]5CCCN5c5ccccc5S4(=O)=O)c3)ccc21` (single isomer, unassigned) [Example 153, (*S)-3-(3-(((R)-5,5-Dioxido-7a,8,9,10-tetrahydrobenzo[f]pyrrolo[2,1-d][1,2,5]thiadiazepin-6(7H)-yl)methyl)-4-methylphenyl)-3-(1-ethyl-4-methyl-1H-benzo[d][1,2,3]triazol-5-yl)propanoic Acid] had an EC50 of 3 nM.

For the molecule `Cc1cc2cc([C@@H](c3ccc(C)c(CN4CC5(CC5)Oc5nc(OCCN6CCCCC6)c(C)cc5S4(=O)=O)c3)C(C)(C)C(=O)O)n(C)c2nn1` (single isomer, unassigned) [Example 350, (*S)-3-(3,7-Dimethyl-7H-pyrrolo[2,3-c]pyridazine-6-yl)-2,2-dimethyl-3-(4-methyl-3-((8′-methyl-1′,1′-dioxido-7′-(2-(piperidine-1-yl)-ethoxy)spiro[cyclopropane-1,4′-pyrido[2,3-b][1,4,5]oxathiazepin]-2′,(3′H)-yl)methyl)phenyl)propanoic Acid], the response was half-maximal at 23.4 nM (EC50). Against the preceding molecule, the EC50 is about 7.8-fold higher.

Molecule `Cc1ccc([C@H](CC(=O)O)c2ccn3c(C(F)(F)F)nnc3c2C)cc1CN1C[C@H]2CCCCN2c2ncc(Cl)cc2S1(=O)=O` (relative stereo) [Example 193, (*S)-3-(3-(((*R)-3-Chloro-5,5-dioxido-7,7a,8,9,10,11-hexahydro-6H-dipyrido[2,1-d:2′,3′-f][1,2,5]thiadiazepin-6-yl)methyl)-4-methylphenyl)-3-(8-methyl-3-(trifluoromethyl)-[1,2,4]triazolo[4,3-a]pyridin-7-yl)propanoic Acid] displayed a concentration giving a half-maximal response (EC50) of 1.7 nM. This EC50 lies about 14-fold lower than the previous one.

Consider `Cc1ccc([C@@H](CC(=O)O)c2ccn3c(C(F)(F)F)nnc3c2C)cc1CN1C[C@H]2COCCN2c2ncccc2S1(=O)=O` (single isomer, unassigned) [Example 263, (*R)-3-(3-(((*S)-5,5-Dioxido-7a,8,10,11-tetrahydro-[1,4]oxazino[3,4-d]pyrido[2,3-f][1,2,5]thiadiazepin-6(7H)-yl)methyl)-4-methylphenyl)-3-(8-methyl-3-(trifluoromethyl)-[1,2,4]triazolo[4,3-a]pyridin-7-yl)propanoic Acid], for which the half-maximal effective concentration (EC50) worked out at 1160 nM.

Take `Cc1cnc2c(c1)S(=O)(=O)N(Cc1nc([C@@H](CC(=O)O)c3ccn4c(C(F)(F)F)nnc4c3C)ccc1C)C[C@@H]1CCCCN21` (relative stereo) [Example 488, (*S)-3-(8-Methyl-3-(trifluoromethyl)-[1,2,4]triazolo[4,3-a]pyridin-7-yl)-3-(5-methyl-6-(((*S)-3-methyl-5,5-dioxido-7,7a,8,9,10,11-hexahydro-6H-dipyrido[2,1-d:2′,3′-f][1,2,5]thiadiazepin-6-yl)methyl)pyridin-2-yl)propanoic Acid]: a half-maximal effect (EC50) was put at 11.9 nM.

In the case of `CCn1nnc2c(C)c([C@@H](CC(=O)O)c3ccc(C)c(CN4CC(C)(C)Oc5ccccc5S4(=O)=O)c3)ccc21` (single isomer, unassigned) [Example 158, (*S)-3-(3-((4,4-Dimethyl-1,1-dioxido-3,4-dihydro-2H-benzo[b][1,4,5]oxathiazepin-2-yl)methyl)-4-methylphenyl)-3-(1-ethyl-4-methyl-1H-benzo[d][1,2,3]triazol-5-yl)propanoic Acid], the response was half-maximal at 6.2 nM (EC50).

For `Cc1ccc([C@H](CC(=O)O)c2ccn3c(C(F)(F)F)nnc3c2C)cc1CN1C[C@]2(C)CCCN2c2ncccc2S1(=O)=O` (relative stereo) [Example 186, (*S)-3-(4-Methyl-3-(((*S)-7a-methyl-5,5-dioxido-7a,8,9,10-tetrahydropyrido[2,3-f]pyrrolo[2,1-d][1,2,5]thiadiazepin-6(7H)-yl)methyl)phenyl)-3-(8-methyl-3-(trifluoromethyl)-[1,2,4]triazolo[4,3-a]pyridin-7-yl)propanoic Acid], the 50% effective concentration (EC50) came to 47 nM.

Molecule `CCCCNc1ccc2c(n1)OC1(CC1)CN(Cc1cc([C@H](CC(=O)O)c3ccn4c(C(F)(F)F)nnc4c3C)ccc1C)S2(=O)=O` (single isomer, unassigned) [Example 113, (*S)-3-(3-((7′-(Butylamino)-1′,1′-dioxidospiro[cyclopropane-1,4′-pyrido[2,3-b][1,4,5]oxathiazepin]-2′(3′H)-yl)methyl)-4-methylphenyl)-3-(8-methyl-3-(trifluoromethyl)-[1,2,4[triazolo[4,3-a]pyridine-7-yl)propanoic Acid] gave an EC50 of 490 nM.

Take `Cc1ccc([C@H](c2ccn3c(C(F)(F)F)nnc3c2C)C(C)(C)C(=O)O)cc1CN1CC2(CCOCC2)Oc2nc(NCCCO)ccc2S1(=O)=O` (single isomer, unassigned) [Example 116, (*R)-3-(3-((7′-((3-Hydroxypropyl)amino)-1′,1′-dioxido-2,3,5,6-tetrahydrospiro[pyran-4,4′-pyrido[2,3-b][1,4,5]oxathiazepin]-2′(3′H)-yl)methyl)-4-methylphenyl)-2,2-dimethyl-3-(8-methyl-3-(trifluoromethyl)-[1,2,4[triazolo[4,3-a]pyridine-7-yl)propanoic Acid]: a half-maximal response (EC50) required 991 nM. This EC50 lies about 2-fold higher than the previous one.

Turning to `CCn1nnc2c(C)c(C(CC(=O)O)c3ccc(C)c(CN4CC5(COC5)Oc5ccccc5S4(=O)=O)n3)ccc21` (racemic) [Example 237, (R 5)-3-(6-((1,1-Dioxidospiro[benzo[b][1,4,5]oxathiazepine-4,3′-oxetan]-2(3H)-yl)methyl)-5-methylpyridin-2-yl)-3-(1-ethyl-4-methyl-1H-benzo[d][1,2,3]triazol-5-yl)propanoic Acid], a half-maximal response (EC50) required 19 nM.

With `Cc1ccc([C@@H](c2ccn3c(C(F)(F)F)nnc3c2C)C(C)(C)C(=O)O)cc1CN1CC2(CCNCC2)Oc2ncccc2S1(=O)=O` (single isomer, unassigned) [Example 336, (*S)-3-(3-((1′,1′-Dioxidospiro[piperidine-4,4′-pyrido[2,3-b][1,4,5]oxathiazepin]-2′(3′H)-yl)methyl)-4-methylphenyl)-2,2-dimethyl-3-(8-methyl-3-(trifluoromethyl)-[1,2,4]triazolo[4,3-a]pyridin-7-yl)propanoic Acid], the EC50 is 1830 nM. Compared with the last molecule, the EC50 is about 96-fold higher.

`Cc1cc2cc([C@@H](c3ccc(C)c(CN4CC5(CCOCC5)Oc5nc(OCCN6CCCC6)c(C)cc5S4(=O)=O)c3)C(C)(C)C(=O)O)n(C)c2nn1` (single isomer, unassigned) [Example 346, (*S)-3-(3,7-Dimethyl-7H-pyrrolo[2,3-c]pyridazin-6-yl)-2,2-dimethyl-3-(4-methyl-3-((8′-methyl-1′,1′-dioxido-7′-(2-(pyrrolidin-1-yl)ethoxy)-2,3,5,6-tetrahydrospiro[pyran-4,4′-pyrido[2,3-b][1,4,5]oxathiazepin]-2′(3′H)-yl)methyl)phenyl)propanoic Acid] registered an EC50 of 49.8 nM.

`Cc1ccc([C@H](CC(=O)O)c2ccn3c(C(F)F)nnc3c2C)cc1CN1CC2(CCOCC2)Oc2ccc(F)cc2S1(=O)=O` (single isomer, unassigned) [Example 524, (*S)-3-(3-(Difluoromethyl)-8-methyl-[1,2,4]triazolo[4,3-a]pyridin-7-yl)-3-(3-((8-fluoro-1,1-dioxido-2′,3′,5′,6′-tetrahydrospiro[benzo[b][1,4,5]oxathiazepine-4,4′-pyran]-2(3H)-yl)methyl)-4-methylphenyl)propanoic Acid] gave an EC50 of 19.7 nM.

With `COCCCOc1ccc2c(n1)OC1(CC1)CN(Cc1cc([C@H](CC(=O)O)c3ccn4c(C(F)(F)F)nnc4c3C)ccc1C)S2(=O)=O` (single isomer, unassigned) [Example 109, (*S)-3-(-3-((7′-((3-Methoxypropoxy)-1′,1′-dioxidospiro[cyclopropane-1,4′-pyrido[2,3-b][1,4,5]oxathiazepin]-2′(3′H)-yl)methyl)-4-methylphenyl)-3-(8-methyl-3-(trifluoromethyl)-[1,2,4[triazolo[4,3-a]pyridine-7-yl)propanoic Acid], the concentration for a half-maximal effect (EC50) was determined as 128 nM.

In turn, `Cc1ncc([C@@H](c2ccn3c(C(F)(F)F)nnc3c2C)C(C)(C)C(=O)O)cc1CN1C[C@H]2CCCCN2c2ncc(C#N)cc2S1(=O)=O` (relative stereo) [Example 654, (*R)-3-(5-(((*R)-3-Cyano-5,5-dioxido-7,7a,8,9,10,11-hexahydro-6H-dipyrido[2,1-d:2′,3′-f][1,2,5]thiadiazepin-6-yl)methyl)-6-methylpyridin-3-yl)-2,2-dimethyl-3-(8-methyl-3-(trifluoromethyl)-[1,2,4]triazolo[4,3-a]pyridin-7-yl)propanoic Acid] displayed a 50% effective concentration (EC50) of 6880 nM.

`CCn1nnc2c(C)c([C@H](CC(=O)O)c3ccc(C)c(CN4C[C@H]5COCCN5c5ncccc5S4(=O)=O)c3)ccc21` (single isomer, unassigned) [Example 137, (*R)-3-(3-(((*S)-5,5-Dioxido-7a,8,10,11-tetrahydro-[1,4]oxazino[3,4-d]pyrido[2,3-f][1,2,5]thiadiazepin-6(7H)-yl)methyl)-4-methylphenyl)-3-(1-ethyl-4-methyl-1H-benzo[d][1,2,3]triazol-5-yl)propanoic Acid] registered a half-maximal effective concentration (EC50) of 300 nM.
